# Assay results reported in patent US20230382904A1, “SUBSTITUTED 4-([1,2,4]TRIAZOLO[1,5-a]PYRIDIN-6-YL)THIOPHENE-2-CARBOXAMIDE DERIVATIVES AND USE THEREOF” (The Johns Hopkins University, priority 2020, published 2023).
# Legend:
# [1] = biological target: LZK (Homo sapiens (Human), UniProt O43283); test: LZK biochemical assay (TR-FRET, MKK7 phosphorylation)
# Method in brief: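 Catalytic-domain LZK (10 nM) phosphorylated His-MKK7 (15 nM) with 15 μM ATP for 90 min at RT. Phospho-T275/S277 detected by Eu-anti-phospho-MKK7/XL665-anti-His TR-FRET after 16 h at 32° C, using the 665/Eu ratio. Buffer: 50 mM Hepes pH 7.5, 10 mM MgCl2, 1 mM DTT.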
# [2] = biological target: DLK (Homo sapiens (Human), UniProt Q12852); test: DLK biochemical assay (TR-FRET, MKK7 phosphorylation)
# DLK, sequence (Q12852 1-520): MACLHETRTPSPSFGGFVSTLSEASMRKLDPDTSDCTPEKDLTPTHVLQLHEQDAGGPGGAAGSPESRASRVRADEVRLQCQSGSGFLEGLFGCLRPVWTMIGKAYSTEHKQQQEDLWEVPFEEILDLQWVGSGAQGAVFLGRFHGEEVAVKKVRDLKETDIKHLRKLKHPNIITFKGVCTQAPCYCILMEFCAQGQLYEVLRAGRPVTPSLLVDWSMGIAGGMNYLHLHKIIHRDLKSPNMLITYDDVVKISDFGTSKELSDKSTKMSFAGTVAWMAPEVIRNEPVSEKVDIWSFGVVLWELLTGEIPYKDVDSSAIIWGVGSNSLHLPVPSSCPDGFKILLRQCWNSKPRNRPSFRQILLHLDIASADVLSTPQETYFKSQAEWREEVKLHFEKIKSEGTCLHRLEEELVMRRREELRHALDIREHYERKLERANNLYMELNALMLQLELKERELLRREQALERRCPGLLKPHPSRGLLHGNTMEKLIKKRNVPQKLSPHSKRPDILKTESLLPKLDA
# Method in brief: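 Catalytic-domain DLK (10 nM) phosphorylates His-MKK7 (15 nM) with 60 μM ATP, 90 min at RT, in pH 7.5 HEPES buffer. Phospho-T275/S277 read by TR-FRET (Eu anti-phospho donor, XL665 anti-His acceptor) after 16 h detection, at 37° C. in 1536 or 4° C. in 384 format.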
# LZK, sequence (O43283 168-409): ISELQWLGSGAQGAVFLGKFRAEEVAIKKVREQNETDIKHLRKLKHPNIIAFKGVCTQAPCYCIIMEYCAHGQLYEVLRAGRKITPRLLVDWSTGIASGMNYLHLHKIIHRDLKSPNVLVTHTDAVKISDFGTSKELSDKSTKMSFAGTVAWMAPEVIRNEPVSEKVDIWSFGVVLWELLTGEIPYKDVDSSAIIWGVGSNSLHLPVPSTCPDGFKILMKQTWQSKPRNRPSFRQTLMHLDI
SMILES,IC50 [1] [nM],IC50 [2] [nM]
CC(C)c1csc(CNC(=O)c2cc(-c3ccc4nc(N)nn4c3)cs2)n1 [Compound 249],7600,745
Nc1nc2ccc(-c3csc(C(=O)NCc4cnc(Cl)s4)c3)cn2n1 [Compound 250],4500,935
Cn1cnc(CNC(=O)c2cc(-c3ccc4nc(N)nn4c3)cs2)c1 [Compound 251],9100,1960
COc1cccc(CNC(=O)c2cc(-c3ccc4nc(N)nn4c3)cs2)n1 [Compound 254],10000,1000
Cn1nccc1CNC(=O)c1cc(-c2ccc3nc(N)nn3c2)cs1 [Compound 255],4400,1990
COc1ccnc(CNC(=O)c2cc(-c3ccc4nc(N)nn4c3)cs2)c1 [Compound 256],17000,1600
Nc1nc2ccc(-c3csc(C(=O)NCc4cn5ccccc5n4)c3)cn2n1 [Compound 257],> 30000,1100
COc1ccc2c(c1)nc(CNC(=O)c1cc(-c3ccc4nc(N)nn4c3)cs1)n2C [Compound 260],> 30000,1200
Nc1nc2ccc(-c3csc(C(=O)NCc4cnc5ccccn45)c3)cn2n1 [Compound 261],14000,510
COc1cccc([C@H](C)NC(=O)c2cc(-c3ccc4nc(N)nn4c3)cs2)c1 [Compound 263],> 30000,355
COc1cccc([C@@H](C)NC(=O)c2cc(-c3ccc4nc(N)nn4c3)cs2)c1 [Compound 264],> 30000,505
C[C@H](NC(=O)c1cc(-c2ccc3nc(N)nn3c2)cs1)c1cccc(Cl)c1 [Compound 265],> 30000,130
C[C@@H](NC(=O)c1cc(-c2ccc3nc(N)nn3c2)cs1)c1cccc(Cl)c1 [Compound 267],> 30000,260
COc1ccc2c(c1)C(NC(=O)c1cc(-c3ccc4nc(N)nn4c3)cs1)CC(C)(C)O2 (centres unmarked) [Compound 268],22000,180
COc1cccc(C(C)(C)NC(=O)c2cc(-c3ccc4nc(N)nn4c3)cs2)c1 [Compound 269],> 30000,590
CCNC(=O)c1cc(-c2ccc3nc(N)nn3c2)cs1 [Compound 270],> 30000,3500
COCCCNC(=O)c1cc(-c2ccc3nc(N)nn3c2)cs1 [Compound 271],> 30000,3500
COC1CCC(NC(=O)c2cc(-c3ccc4nc(N)nn4c3)cs2)C1 (centres unmarked) [Compound 272],> 30000,1500
Nc1nc2ccc(-c3csc(C(=O)NCc4ccsc4)c3)cn2n1 [Compound 273],14000,580
Nc1nc2ccc(-c3csc(C(=O)NCc4cccs4)c3)cn2n1 [Compound 274],11000,260
Nc1nc2ccc(-c3csc(C(=O)NCc4ccco4)c3)cn2n1 [Compound 275],16000,630
Cn1cccc1CNC(=O)c1cc(-c2ccc3nc(N)nn3c2)cs1 [Compound 276],15000,420
Nc1nc2ccc(-c3csc(C(=O)NCc4ccoc4)c3)cn2n1 [Compound 277],18000,480
CCc1ccccc1NC(=O)c1cc(-c2ccc3nc(N)nn3c2)cs1 [Compound 278],> 30000,440
Nc1nc2ccc(-c3csc(C(=O)NCc4ccc(OCCN5CCCCC5)cc4)c3)cn2n1 [Compound 279],> 30000,2100
COC(=O)c1cccc(CNC(=O)c2cc(-c3ccc4nc(N)nn4c3)cs2)c1 [Compound 280],23000,250

SMILES,IC50 [1] [nM],IC50 [2] [nM]
Nc1nc2ccc(-c3csc(C(=O)NCc4ccc(OCCN5CCOCC5)cc4)c3)cn2n1 [Compound 281],> 30000,1500
COc1cccc(CCNC(=O)c2cc(-c3ccc4nc(N)nn4c3)cs2)c1 [Compound 282],> 30000,750
Nc1nc2ccc(-c3csc(C(=O)NCCc4c(F)cccc4Cl)c3)cn2n1 [Compound 283],> 30000,530
CN(CCc1ccccc1)C(=O)c1cc(-c2ccc3nc(N)nn3c2)cs1 [Compound 284],> 30000,2600
Nc1nc2ccc(-c3csc(C(=O)NCc4cccc(C(=O)O)c4)c3)cn2n1 [Compound 285],20000,1700
Nc1nc2ccc(-c3csc(C(=O)Nc4ccccc4OC(F)(F)F)c3)cn2n1 [Compound 286],> 30000,600
CCN1CCC[C@@H](NC(=O)c2cc(-c3ccc4nc(N)nn4c3)cs2)C1 [Compound 287],> 30000,5700
Nc1nc2ccc(-c3csc(C(=O)Nc4ccccc4OC(F)F)c3)cn2n1 [Compound 288],20000,2400
Nc1nc2ccc(-c3csc(C(=O)Nc4ccccc4CO)c3)cn2n1 [Compound 289],2000,2600
COc1cccc(C(CCO)NC(=O)c2cc(-c3ccc4nc(N)nn4c3)cs2)c1 (centres unmarked) [Compound 290],7400,620
COc1cccc(C2(NC(=O)c3cc(-c4ccc5nc(N)nn5c4)cs3)CC2)c1 [Compound 291],14000,710
COCCOc1cccc(CNC(=O)c2cc(-c3ccc4nc(N)nn4c3)cs2)c1 [Compound 292],19000,1200
CC(C)c1ccccc1NC(=O)c1cc(-c2ccc3nc(N)nn3c2)cs1 [Compound 293],> 30000,260
CC(O)c1ccccc1NC(=O)c1cc(-c2ccc3nc(N)nn3c2)cs1 (centres unmarked) [Compound 294],> 30000,710
Nc1nc2ccc(-c3csc(C(=O)NCc4ccc5c(c4)OCO5)c3)cn2n1 [Compound 295],14000,390
COc1cccc(CNC(=O)c2cc(-c3cn4nc(N)nc4cc3F)cs2)c1 [Compound 296],12000,730
Nc1nc2cc(F)c(-c3csc(C(=O)NCc4ccccc4)c3)cn2n1 [Compound 297],11000,710
C[C@@H](NC(=O)c1cc(-c2ccc3nc(N)nn3c2)cs1)c1ccc(F)cc1 [Compound 298],4200,350
Nc1nc2ccc(-c3csc(C(=O)NC4(c5ccc(F)cc5)CC4)c3)cn2n1 [Compound 299],2500,120
Nc1nc2cc(F)c(-c3csc(C(=O)NCc4ccc(F)cc4)c3)cn2n1 [Compound 300],3700,1100
CC(C)C(NC(=O)c1cc(-c2ccc3nc(N)nn3c2)cs1)c1ccc(F)cc1 (centres unmarked) [Compound 301],16500,100
C[C@H](NC(=O)c1cc(-c2ccc3nc(N)nn3c2)cs1)c1ccc(F)cc1 [Compound 302],1130,75.5
CC(NC(=O)c1cc(-c2ccc3nc(N)nn3c2)cs1)c1ccc(F)cc1 (centres unmarked) [Compound 303],1800,130
Cc1cccc2oc(CNC(=O)c3cc(-c4ccc5nc(N)nn5c4)cs3)nc12 [Compound 304],4300,220
Cc1sc(C(=O)NCc2ccc(F)cc2)cc1-c1ccc2nc(N)nn2c1 [Compound 305],> 30000,> 30000
Nc1nc2ccc(-c3csc(C(=O)NC4COc5ccc(F)cc54)c3)cn2n1 (centres unmarked) [Compound 306],2500,130
